Data set [1] has as its target T1, cGMP-specific 3',5'-cyclic phosphodiesterase (Homo sapiens, UniProt O76074). The data set is described as follows: Inhibition of human PDE5 using [3H]cGMP as substrate at 1 uM incubated for 10 mins by liquid scintillation counter analysis relative to control.
The target of data set [2] is T1, cGMP-specific 3',5'-cyclic phosphodiesterase. As to the kind of experiment: Inhibition of human PDE5 using [3H]cGMP as substrate incubated for 10 mins by liquid scintillation counter analysis.
The species named for another data set is Bos taurus. The data set is described as follows: Inhibition of bovine heart PDE1 using [3H]cGMP as substrate at 10 uM incubated for 10 mins by liquid scintillation counter analysis relative to control.
Data set [3] in a line: Aqueous solubility of the compound in pH 7.4 PBS measured after 7 hrs by HPLC-UV analysis. The class given is physicochemical. The note with it: for solubility at 7 h: PBS, pH 7.4.
Data set [4] in a line: 1-Octanol/PBS partition coefficient, logD of the compound at pH 7.4 incubated for 7 hrs by shake flask technique based HPLC-UV analysis. The class given is physicochemical.
A short description of data set [5]: Inhibition of bovine heart PDE1 using [3H]cGMP as substrate incubated for 10 mins by liquid scintillation counter analysis. On the set-up: species or system Bos taurus.
Data set [6] in a line: Selectivity index, ratio of IC50 for inhibition of bovine heart PDE1to IC50 for inhibition of human PDE5.

≈ marks a conversion by molar mass, not a printed value.

Take `NS(=O)(=O)c1cccc(Nc2nc(NC3CCN(Cc4ccccc4)CC3)c3nc[nH]c3n2)c1`: the figures for the inhibition (in data set [1]; in the data set listed under Bos taurus) were 94.3% and 31.2%, respectively. Also, the IC50 in data set [2] amounted to 290 nM. Further, the concentration in solution in data set [3] (solubility at 7 h) came to 150 µg/mL (≈ 313 µM). Moreover, the logD at 7 h in data set [4] is 2.16.

Regarding `CN(C)CCNc1nc(Nc2cccc(S(=O)(=O)N3CCN(C)CC3)c2)nc2ccccc12`, in data set [1], the inhibition amounted to 75.3%. The IC50 in data set [2] is 5280 nM.

Take `CC(C)N1CCC(Nc2nc(Nc3cccc(S(N)(=O)=O)c3)nc3[nH]cnc23)CC1`: the inhibition in data set [1] came out at 32.7%.

Consider `COc1cc2nc(Nc3ccc(S(N)(=O)=O)cc3)nc(NCC(C)C)c2cc1OC`, for which, in data set [1], the inhibition is 94.6%. In data set [2], the IC50 stood at 3970 nM.

With `Cn1cnc2c(NCc3ccccc3)nc(Nc3cccc(S(N)(=O)=O)c3)nc21`, in data set [1], the inhibition stood at 86.1%. The same compound showed a half-inhibitory concentration (IC50) in data set [2] of 4460 nM.

Turning to `CC(C)CNc1nc(Nc2cccc(S(=O)(=O)N3CCN(C)CC3)c2)nc2ccccc12`, the results for the inhibition (in data set [1]; in the data set filed under Bos taurus) were 97.3% and 67.2%, respectively. Further, in data set [2], half-maximal inhibition (IC50) was put at 430 nM. This compound gave a solubility at 7 h in data set [3] of 0.6 µg/mL (≈ 1.32 µM). In data set [4], this compound displayed a logD at 7 h of 3.55.

With `CN(C)CCNc1nc(Nc2cccc(S(N)(=O)=O)c2)nc2ccccc12`, the inhibition in data set [1] amounted to 72.2%. In data set [2], the IC50 is 9390 nM.

For `CN1CCN(S(=O)(=O)c2ccc(Nc3nc(NCc4ccccc4)c4ncn(C)c4n3)cc2)CC1`, the inhibition in data set [1] was 97.3%. Further, inhibition in data set [2] was half-maximal at 38400 nM (IC50).

Regarding `CN1CCN(S(=O)(=O)c2ccc(Nc3nc(NCc4ccccc4)c4ccccc4n3)cc2)CC1`, the inhibition in data set [1] was found to be 96.5%. Besides, the IC50 in data set [2] was determined as 490 nM.

With `CC(C)N1CCC(Nc2nc(Nc3cccc(S(N)(=O)=O)c3)nc3ccccc23)CC1`, the inhibition in data set [1] turned out to be 96.3%. In addition, inhibition in data set [2] was half-maximal at 1030 nM (IC50).

Turning to `NS(=O)(=O)c1cccc(Nc2nc(NCc3ccccc3)c3ccccc3n2)c1`, the inhibition stood at 101% in data set [1] and 73.9% in the data set filed under Bos taurus. For the same compound, the IC50 came to 100 nM in data set [2] and 11800 nM in data set [5]. The same compound registered a solubility at 7 h in data set [3] of 2.1 µg/mL (≈ 5.18 µM). The logD at 7 h in data set [4] came to 3.87. Further, the Ratio IC50 in data set [6] came out at 100.

As for `CC(C)CNc1nc(Nc2cccc(S(=O)(=O)N3CCN(C)CC3)c2)nc2c1ncn2C`, the inhibition in data set [1] is 91.8%. It took 33300 nM to reach half-maximal inhibition in data set [2] (IC50).

For the compound `COc1cc2nc(Nc3cccc(S(N)(=O)=O)c3)nc(NC3CCN(Cc4ccccc4)CC3)c2cc1OC`, the inhibition in data set [1] came out at 93.7%. Further, in data set [2], it took 1640 nM to reach half-maximal inhibition (IC50).

For the compound `COc1cc2nc(Nc3cccc(S(N)(=O)=O)c3)nc(NCC(C)C)c2cc1OC`, the inhibition in data set [1] amounted to 94.9%. The midpoint of inhibition in data set [2], the IC50, lay at 5230 nM.

Take `CN1CCN(S(=O)(=O)c2cccc(Nc3nc(NCc4ccccc4)c4ncn(C)c4n3)c2)CC1`: the inhibition in data set [1] worked out at 69%.

On to `CCCc1nn(C)c2c(=O)[nH]c(-c3cc(S(=O)(=O)N4CCN(C)CC4)ccc3OCC)nc12`, for which the solubility in data set [3] (buffer, pH 7.4, 7 h) was found to be 180 µg/mL (≈ 379 µM). In data set [4], this compound gave a logD at 7 h of 2.69.

On to `CCCNc1nc(Nc2cccc(S(=O)(=O)N3CCN(C)CC3)c2)nc2ccccc12`, for which the inhibition in data set [1] amounted to 96.9%. The IC50 in data set [2] is 600 nM.

In the case of `CN1CCN(S(=O)(=O)c2cccc(Nc3nc(NCc4cccs4)c4ccccc4n3)c2)CC1`, in data set [1], the inhibition amounted to 93.9%. For the same compound, it took 520 nM to reach half-maximal inhibition in data set [2] (IC50).

For `COc1cc2nc(Nc3cccc(S(N)(=O)=O)c3)nc(NC3CCN(C(C)C)CC3)c2cc1OC`, in data set [1], the inhibition amounted to 79.3%. Further, it took 3410 nM to reach half-maximal inhibition in data set [2] (IC50).

As for `CC(C)CNc1nc(Nc2ccc(S(=O)(=O)N3CCN(C)CC3)cc2)nc2ccccc12`, the inhibition was 99% in data set [1] and 44.8% in the data set listed under Bos taurus. Moreover, in data set [2], half-maximal inhibition (IC50) required 360 nM. Besides, the solubility at 7 h in data set [3] stood at 3 µg/mL (≈ 6.6 µM). This compound also came in with a logD at 7 h in data set [4] of 3.68.

For the compound `Cn1cnc2c(NCc3ccccc3)nc(Nc3ccc(S(N)(=O)=O)cc3)nc21`, the inhibition in data set [1] amounted to 96.5%. This compound came in with an IC50 in data set [2] of 23000 nM.

As to `CN1CCN(S(=O)(=O)c2cccc(Nc3nc(NCc4ccccc4)c4ccccc4n3)c2)CC1`, the inhibition in data set [1] is 98.3%. Further, the IC50 in data set [2] was 500 nM.

`NS(=O)(=O)c1cccc(Nc2nc(NC3CCN(Cc4ccccc4)CC3)c3ccccc3n2)c1`: the inhibition was 93.4% in data set [1] and 61.7% in the data set listed under Bos taurus. This compound displayed an IC50 in data set [2] of 220 nM. Also, the solubility at 7 h in data set [3] was 4.2 µg/mL (≈ 8.6 µM). In addition, in data set [4], the logD at 7 h came out at 3.37.

For `CN1CCN(S(=O)(=O)c2cccc(Nc3nc(NCc4ccccc4)c4nc[nH]c4n3)c2)CC1`, in data set [1], the inhibition was 99.3%. The compound also displayed an IC50 in data set [2] of 2020 nM.

On to `CC(C)CNc1nc(Nc2ccc(S(=O)(=O)N3CCN(C)CC3)cc2)nc2c1ncn2C`, for which the inhibition in data set [1] was 96%. Besides, the half-inhibitory concentration (IC50) in data set [2] turned out to be 28500 nM.

In the case of `CC(C)N1CCC(Nc2nc(Nc3cccc(S(=O)(=O)N4CCN(C)CC4)c3)nc3ccccc23)CC1`, the inhibition in data set [1] came to 93.6%; in the data set listed under Bos taurus, 28.2%. Further, 150 nM corresponded to half-maximal inhibition in data set [2] (IC50). Moreover, the solubility at 7 h in data set [3] is 1770 µg/mL (≈ 3380 µM). Besides, in data set [4], the logD at 7 h came to 2.15.

For the compound `CCCNc1nc(Nc2cccc(S(=O)(=O)N3CCN(C)CC3)c2)nc2c1ncn2C`, the inhibition in data set [1] is 93.6%. This compound also registered an IC50 in data set [2] of 43200 nM.

On to `CCCNc1nc(Nc2ccc(S(=O)(=O)N3CCN(C)CC3)cc2)nc2ccccc12`, for which the inhibition in data set [1] worked out at 95.6%; in the data set filed under Bos taurus, 46.8%. The compound also returned an IC50 in data set [2] of 410 nM. This compound also returned a solubility at 7 h in data set [3] of 0.1 µg/mL (≈ 0.227 µM). Besides, the logD at 7 h in data set [4] amounted to 3.92.

For `COc1cc2nc(Nc3cccc(S(=O)(=O)N4CCN(C)CC4)c3)nc(NC3CCN(C(C)C)CC3)c2cc1OC`, in data set [1], the inhibition came out at 18.5%.

Consider `CCCNc1nc(Nc2cccc(S(N)(=O)=O)c2)nc2cc(OC)c(OC)cc12`, for which, in data set [1], the inhibition worked out at 91.6%. Further, it took 1440 nM to reach half-maximal inhibition in data set [2] (IC50).

As to `CCCNc1nc(Nc2ccc(S(=O)(=O)N3CCN(C)CC3)cc2)nc2c1ncn2C`, the inhibition in data set [1] is 93.6%. In data set [2], the IC50 turned out to be 18900 nM.

(Values after ChEMBL document CHEMBL5150062, “Computational design, synthesis and biological evaluation of PDE5 inhibitors based on N2,N4-diaminoquinazoline and N2,N6-diaminopurine scaffolds” (Bioorg Med Chem, 2022).)
